Experimental data reported in ChEMBL document CHEMBL1152780, “Kinase domain mutations in cancer: implications for small molecule drug design strategies” (J Med Chem, 2009).

How the values were obtained:
[1] = Cytotoxicity against mouse BA/F3 cells expressing EGFR L858R mutant; format: functional, cell-based; conditions: BaF3
[2] = Cytotoxicity against mouse BA/F3 cells expressing EGFR L858R/T790M mutant; format: functional, cell-based; conditions: BaF3

Structure (SMILES) | IC50 [1] | IC50 [2]
C#Cc1cccc(Nc2ncnc3cc(OCCOC)c(OCCOC)cc23)c1 [ERLOTINIB] | 0.0125 µM | –
CCOc1cc2ncc(C#N)c(Nc3ccc(OCc4ccccn4)c(Cl)c3)c2cc1NC(=O)/C=C/CN(C)C [NERATINIB] | 0.0035 µM | 0.18 µM
